Patent publication US20050158425A1, “Thin mouthfeel calcium-fortified beverage containing calcium lactate gluconate citrate” (PURAC BIOCHEM BV, priority 2003, published 2005)

Legend:
[1] = Dissolution rate of calcium-fortified beverages by conductivity; assay type: physicochemical; conditions: 20° C.
Method: The dissolution rates of calcium lactate gluconate (ratio Ca lactate:Ca gluconate 80/20) and calcium lactate gluconate citrate (in a ratio calcium lactate:calcium gluconate:calcium citrate of 12.7:47.8:39.5) beverages were determined by measuring the conductivity and calculating the dissolution rate from the conductivity indices. Said beverages contained 10, and 30% R.D.I respectively in water at 20° C., 30% in apple juice at 20° C. and 10% in cranberry juice at 20° C.

[2] = Hygroscopicity of powdered samples; assay type: physicochemical; conditions: for water pick up (hygroscopicity): 20° C., 60% relative humidity, 21 days, powdered sample; for state of powdered sample (hygroscopicity): 35° C., 70% relative humidity
Method: The hygroscopicities of powdered samples of calcium lactate gluconate citrate (in a ratio calcium lactate:calcium gluconate:calcium citrate of 12.7:47.8:39.5) and calcium lactate gluconate (lactate/gluconate ratio 20/80) were measured at 20° C. at 60% relative humidity and at 35° C. at 70% relative humidity. At 20° C. at 60% relative humidity both samples hardly pick up any water (about 1%) for 21 days.

SMILES | Dissolution time in seconds (at conductivity 99.5) ([1]; Apple juice (30% RDI)) [s] | Dissolution time in seconds (at conductivity 99.5) ([1]; Cranberry juice (10% RDI)) [s] | Dissolution time in seconds (at conductivity 99.5) ([1]; Water (10% RDI)) [s] | water pick up (hygroscopicity) [2] | state of powdered sample (hygroscopicity) [2] | hygroscopicity ([2]; at increased temperatures)
CC(O)C(=O)[O-].O=C([O-])[C@H](O)[C@@H](O)[C@H](O)[C@H](O)CO.[Ca+2] [Calcium lactate gluconate, calcium lactate gluconate] | 25 | 34 | 35 | – | – | –
CC(O)C(=O)[O-].O=C([O-])[C@H](O)[C@@H](O)[C@H](O)[C@H](O)CO.[Ca+2] [calcium lactate gluconate (20/80), calcium lactate gluconate] | – | – | – | about 1% | completely liquefied within 2 days | –
CC(O)C(=O)O.O=C(O)[C@H](O)[C@@H](O)[C@H](O)[C@H](O)CO.O=C([O-])CC(O)(CC(=O)[O-])C(=O)O.[Ca+2] [calcium lactate gluconate citrate] | 30 | 27 | 23 | about 1% | still had the powdered structure and appeared unchanged after 20 days | very low hygroscopicity
